Measurements reported in patent US6610524B2, “Thermostable phospholipase A1 mutants and a process for preparing the same” (priority 2000, dated 2003).

Key:
Type in all cases: biochemical
Settings in all cases: pH 8.0, 37° C., mean value of 2 experiments
[1] = target: Serratia sp. strain MK1 phospholipase A1 mutant TA13 (substitutions at positions 36, 102, 154, 158, 281 and 291 with Q, N, K, W, Q and N); SEQ ID NO: 7; DNA SEQ (Serratia sp. MK1, UniProt Q9X9D8, E35Q/K290N/L157W/L280Q/M153K/S101N); experiment: kinetic parameters of phospholipase A1 mutant TA13 (pH-stat titration of fatty acid released from phosphatidylcholine)
Chain of Serratia sp. strain MK1 phospholipase A1 mutant TA13 (substitutions at positions 36, 102, 154, 158, 281 and 291 with Q, N, K, W, Q and N); SEQ ID NO: 7; DNA SEQ (Q9X9D8 entry or part of it E35Q/S101N/M153K/L157W/L280Q/K290N): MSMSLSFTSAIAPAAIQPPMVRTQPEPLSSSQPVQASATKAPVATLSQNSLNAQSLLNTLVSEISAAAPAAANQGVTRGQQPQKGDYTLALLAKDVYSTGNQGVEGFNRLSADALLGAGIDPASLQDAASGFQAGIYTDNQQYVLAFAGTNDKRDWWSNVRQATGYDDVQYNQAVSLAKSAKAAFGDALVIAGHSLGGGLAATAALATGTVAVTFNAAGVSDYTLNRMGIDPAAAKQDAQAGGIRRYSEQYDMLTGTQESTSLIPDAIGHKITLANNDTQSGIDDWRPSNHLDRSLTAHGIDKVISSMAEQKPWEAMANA
Excerpt: (§1) The amino acid sequence of TA3 was deduced from the nucleotide sequence of TA3 comprising thermostable phospholipase A1 mutant gene and set forth in SEQ ID NO: 6, and the amino acid sequence of TA13 was deduced from the nucleotide sequence of TA13 and set forth in SEQ ID NO: 7. When the amino acid sequences of thermostable phopholipase mutants, TA3 and TA13 were compared with that of naturally occurring phospholipase A1, TA3 and TA13 were identified as novel proteins with 7 and 6 amino acid substitutions, respectively. Phospholipase TA3 has been identified to have amino acid substitutions at positions of 32, 39, 65, 105, 153, 158 and 303 with P, A, L, V, I, I, and E and phospholipase TA13 has been identified to have amino acid substitutions at positions of 36, 102, 154, 158, 281 and 291 with Q, N, K, W, Q and N, respectively.
(§2) Catalytic activity of phospholipase A1 was determined using pH-stat titration method. The amount of released fatty acid from enzyme reaction was measured at 37° C. in a pH-stat (Radiometer Copenhagen, France) equipped with autotiter and autoburette. To a substrate solution containing 3.4 mM phosphatidylcholine, 10 mM CaCl2 and 2.6 mM deoxycholic acid, sonicated for emulsification, was added phospholipase A1 enzyme solution and then the amount of released fatty acid was measured. One unit is defined as the amount of enzyme that releases 1μ mole of free fatty acid per minute from phosphatidylcholine at 37° C. and pH 8.0 in a pH-stat.

[2] = target: Serratia sp. strain MK1 phospholipase A1 (PLA1), wild-type (naturally occurring; gene SEQ ID NO: 1) (Serratia sp. MK1, UniProt Q9X9D8); experiment: kinetic parameters of phospholipase A1 (pH-stat titration of fatty acid released from phosphatidylcholine)
Chain of Serratia sp. strain MK1 phospholipase A1 (PLA1), wild-type (naturally occurring; gene SEQ ID NO: 1) (Q9X9D8 entry or part of it): as the sequence (Q9X9D8 entry or part of it E35Q/S101N/M153K/L157W/L280Q/K290N) above, with Q35E, N101S, K153M, W157L, Q280L, N290K counted along it
Protocol: as §2

[3] = target: Serratia sp. strain MK1 phospholipase A1 mutant TA3 (substitutions at positions 32, 39, 65, 105, 153, 158 and 303 with P, A, L, V, I, I and E); SEQ ID NO: 6; DNA (Serratia sp. MK1, UniProt Q9X9D8, E105V/K303E/M153I/Q32P/S158I/S65L/T39A); experiment: kinetic parameters of phospholipase A1 mutant TA3 (pH-stat titration of fatty acid released from phosphatidylcholine)
Chain of Serratia sp. strain MK1 phospholipase A1 mutant TA3 (substitutions at positions 32, 39, 65, 105, 153, 158 and 303 with P, A, L, V, I, I and E); SEQ ID NO: 6; DNA (Q9X9D8 entry or part of it Q32P/T39A/S65L/E105V/M153I/S158I/K303E): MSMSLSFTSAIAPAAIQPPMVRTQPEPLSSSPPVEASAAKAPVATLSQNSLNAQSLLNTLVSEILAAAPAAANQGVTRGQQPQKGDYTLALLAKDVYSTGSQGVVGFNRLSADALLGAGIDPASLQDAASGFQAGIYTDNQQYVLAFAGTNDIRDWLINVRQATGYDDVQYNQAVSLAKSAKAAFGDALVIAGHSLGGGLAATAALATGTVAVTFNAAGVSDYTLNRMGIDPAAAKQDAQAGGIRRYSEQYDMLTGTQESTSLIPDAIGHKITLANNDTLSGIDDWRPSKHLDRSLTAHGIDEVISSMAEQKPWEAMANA
Excerpt: as §1, §2

## phosphatidylcholine
[1]
  Kcat: 13.67 S^−1
  Kcat/Km: 0.114 S^−1 μM
  Km: 120 µM
[2]
  Kcat: 11.23 S^−1
  Kcat/Km: 0.093 S^−1 μM
  Km: 114 µM
[3]
  Kcat: 10.92 S^−1
  Kcat/Km: 0.104 S^−1 μM
  Km: 105 µM
